Data set [1] relates to SK-OV-3 ovary adenocarcinoma cells. Put plainly: MTS cytotoxicity assay, SK-OV-3. It is filed as cell-based, human. The following applies: Homo sapiens. On the technique in general: Tetrazolium assays rely on reduction of a dye to a coloured formazan, in cell work by metabolically active cells.
Data set [2] relates to MCF-7 breast adenocarcinoma cells. Put plainly: MTS cytotoxicity assay, MCF-7. It is filed as cell-based, human.
Data set [3] deals with SK-OV-3 ovary adenocarcinoma cells. Kind of data set: MTS cytotoxicity assay, SK-OV-3. It is filed as cell-based. As to conditions: Homo sapiens; SK-OV-3, 400 μM, 24 h; read-out: cell viability.
A short description of data set [4]: Daphnia magna toxicity assay. The following applies: Daphnia magna, in vivo; 48 h. In kind it is in vivo. The method, then:
(§1) Young organisms of Daphnia magna were selected according to their size from a parthenogenetic culture maintained in an artificial medium for 24 h before the bioassay. The determination was conducted in tissue culture plates with 12 wells (Greiner Bio-One, Monroe, NC, USA), with 10 organisms in each well, and a final volume of 3 mL per sample [65, 66]. As a negative control, DMSO was used at a concentration of 1%. All compounds were tested at six different concentration levels, ranging from 12.5 to 500 μg/mL. All assessments were performed in duplicate.

The next data set relates to Daphnia magna Straus. Put plainly: Daphnia magna toxicity assay. In kind it is in vivo. As to conditions: 48 h. The method, then:
as §1

Data set [5] relates to LoVo colon adenocarcinoma cells. Kind of data set: MTS cytotoxicity assay, LoVo. It is filed as cell-based. As to conditions: Homo sapiens, 400 μM, read-out: cell viability.

Read-outs that look alike come from different tables or passages of the source. Where only a bound is given, the exact number is not on record here.

In general, IC50 refers to the concentration needed to halve the response being measured. Usually viability stands for the share of living cells, or the viability signal relative to a control. A word on the LC50: it is the concentration lethal to half of the exposed cells or organisms. The low end stands for a more lethal substance, the high end for a less lethal substance. For `CCOC(=O)c1cc(CC)n2nc(-c3ccc(F)cc3)ccc12` [Compound 5e, Ethyl 7-ethyl-2-(4-fluorophenyl)pyrrolo[1,2-b]pyridazine-5-carboxylate], the IC50 in data set [1] (SK-OV-3, 24 h, read-out: IC50 Sk-OV-3 24 h) is at least 400 µM; in data set [1] (SK-OV-3, 48 h, read-out: IC50 Sk-OV-3 48 h), at least 400 µM; in data set [2] (Homo sapiens, MCF7, MCF-7, 24 h, read-out: IC50 MCF-7 24 h), at least 400 µM; in data set [2] (Homo sapiens, MCF7, MCF-7, 48 h, read-out: IC50 MCF-7 48 h), at least 400 µM. Also, the viability at 400 µM in data set [2] (Homo sapiens, MCF7, MCF-7, 400 μM, 48 h, read-out: cell viability) is 73.1%; in data set [3], 87.5%; in data set [5] (24 h), 82.2%; in data set [5] (48 h), 67.4%. The cell viability result in data set [2] (MCF-7, 100–400 μM, 48 h) is listed as “less than 90%”. Besides, the LC50 at 48 h in data set [4] worked out at 675 µM. In the data set on Daphnia magna Straus, the “toxicity on Daphnia magna” value is reported as “moderate toxicity”.
